Source: US20050107386A1, “Methods of treating diseases and disorders by targeting multiple kinases” (priority 2003, published 2005)

System: HCT-116 cells
Experiment: SCID mouse/HCT-116 xenograft model
Details: for % Tumor Growth Inhibition: day 28; for TGD (500 mm^3): days to reach 500 mm^3; for TGD (1000 mm^3): days to reach 1000 mm^3

## CCc1c2c(nc3ccc(OC(=O)N4CCC(N5CCCCC5)CC4)cc13)-c1cc3c(c(=O)n1C2)COC(=O)[C@]3(O)CC.Cl [Camptosar, reference compound]
Table 3, i.p. 25 mg/kg q4d
  TGD (days to reach 1000 mm^3): >12 days
  % Tumor Growth Inhibition: 95.4%
Table 5, i.p. 2.5 mg/kg q4d
  % Tumor Growth Inhibition: 66%
  TGD (500 mm^3): >6 days
  TGD (1000 mm^3): >10 days
Table 5, i.p. 10 mg/kg q4d
  % Tumor Growth Inhibition: 90%
  TGD (500 mm^3): >13 days
  TGD (1000 mm^3): >10 days
